As for `Nc1ccc(S(=O)(=O)Nc2ccc(Cl)nn2)cc1`, the melting point was found to be 187 °C.

In turn, `CCNc1cccc(O)c1` had a melting point of 62 °C. `CCN(C(=O)SCc1ccccc1)C(C)C(C)C` (stereo not drawn) had a log10 vapour pressure (mmHg) of -5.12.

Regarding `C[C@@H]1CC[C@@]2(OC1)O[C@H]1C[C@H]3[C@@H]4CC[C@H]5C[C@@H](O)CC[C@]5(C)[C@H]4CC[C@]3(C)[C@H]1[C@@H]2C`, the melting point came to 197 °C.

On to `CCOCC1CO1` (stereo not drawn), for which the boiling point is 128 °C.

As for `O=C(O)c1cccc(Br)c1`, the log10 vapour pressure (mmHg) is -4.04 and the melting point is 155 °C. In the case of `CCOC(=O)N1CCNCC1`, the boiling point was 237 °C. In the case of `O=[N+]([O-])c1cccc(Br)c1`, the boiling point worked out at 256 °C, the log10 vapour pressure (mmHg) is -1.15 and the melting point worked out at 56 °C. As for `NS(=O)(=O)c1cccc([N+](=O)[O-])c1`, the melting point came out at 167 °C. `CCC(c1ccccc1)c1c(O)c2ccccc2oc1=O` (stereo not drawn) gave a melting point of 180 °C. In turn, `CC(=O)NC(C)=O` came in with a boiling point of 224 °C, a log10 vapour pressure (mmHg) of -2 and a melting point of 79 °C. `CC1CCCC2(C)CCCCC12O` (stereo not drawn) registered a boiling point of 270 °C. The compound `O=Cc1cccc(Cl)c1` returned a boiling point of 214 °C and a melting point of 17.5 °C. Turning to `O=C(Cl)C(Cl)=C(Cl)Cl`, the boiling point was found to be 158 °C. On to `O=C1CCCCCC1`, for which the boiling point came to 178 °C and the log10 vapour pressure (mmHg) was found to be 0.0969. Take `CCCCc1ccccn1`: the boiling point was determined as 192 °C and the melting point stood at 97 °C. Taken in the same sequence, the figures for `O=C(O)C1=CCCc2ccccc21` were 306 °C and 125 °C.

On to `O=C(OC[C@H]1O[C@@H](O)[C@H](O)[C@@H](O)[C@@H]1O)c1ccccc1`, for which the melting point stood at 121 °C. Compound `CC(/C=C/C=C(\C)C(=O)O[C@@H]1O[C@H](CO[C@@H]2O[C@H](CO)[C@@H](O)[C@H](O)[C@H]2O)[C@@H](O)[C@H](O)[C@H]1O)=C\C=C\C=C(C)\C=C\C=C(/C)C(=O)O[C@@H]1O[C@H](CO[C@@H]2O[C@H](CO)[C@@H](O)[C@H](O)[C@H]2O)[C@@H](O)[C@H](O)[C@H]1O` showed a melting point of 186 °C. `Cc1ccc[n+]([O-])c1` returned a melting point of 39 °C. With `CCC(C)(C)N`, the boiling point came out at 77 °C and the melting point is -105 °C. For the compound `FC(Cl)(Cl)C(Cl)Cl`, the boiling point was determined as 116 °C and the melting point was -82.6 °C. In turn, `CCOC(=O)C(Cl)C(=O)OCC` showed a boiling point of 222 °C.

As for `CN(C)C=Nc1ccccc1`, the boiling point was determined as 127 °C. As to `Brc1c(Br)c(Br)c2c(c1Br)Oc1c(Br)c(Br)c(Br)c(Br)c1O2`, the log10 vapour pressure (mmHg) was -12.5 and the melting point came out at 376 °C. Compound `Cc1ccc(OP(=O)(Oc2ccc(C)cc2)Oc2ccc(C)cc2)cc1` gave a melting point of 77.5 °C.

Turning to `CC1=CCC(C(C)(C)O)C[C@@H]1O` (stereo partly drawn), the boiling point was 270 °C and the melting point was determined as 130 °C. In the case of `CN(C)CCCCCCN(C)C`, the boiling point was determined as 210 °C and the ready biodegradability result is on record as “not readily biodegradable”.

As to `Cc1cc2cccc(C)c2cc1C`, the boiling point was determined as 285 °C. Compound `FC(F)(F)C(F)(F)C(F)(F)C(F)(F)C(F)(F)C(F)(F)I` came in with a boiling point of 118 °C and a melting point of -46 °C.

In the case of `CC1=C(C)C(=O)OC1=O`, the boiling point is 223 °C and the melting point was 96 °C. Consider `CCn1cc(C(=O)O)c(=O)c2ccc(-c3ccncc3)cc21`, for which the melting point amounted to 290 °C. Turning to `CC12CCC(C1)C(C)(C)C2=O` (stereo not drawn), the log10 vapour pressure (mmHg) is -0.0876 and the melting point was 5.37 °C. Regarding `S=C=Nc1cccc(Cl)c1`, the boiling point is 250 °C. For `N#CCCC#N`, the boiling point came out at 266 °C, the log10 vapour pressure (mmHg) was -2.11 and the melting point was determined as 54.5 °C. `CCOP(=S)(OCC)SC(CCl)N1C(=O)c2ccccc2C1=O` (stereo not drawn) gave a log10 vapour pressure (mmHg) of -7.21 and a melting point of 68 °C. `O=C(OC(=O)c1ccccc1)c1ccccc1` had a boiling point of 360 °C, a log10 vapour pressure (mmHg) of -3.93 and a melting point of 42.5 °C. The compound `Cc1ccc(C(C)C)cc1O` displayed a boiling point of 238 °C and a melting point of 1 °C.

`CCOC(=O)C(C)[N+](=O)[O-]` (stereo not drawn): the boiling point was determined as 190 °C. Consider `Cc1cc(O)c(C(C)(C)C)cc1Sc1cc(C(C)(C)C)c(O)cc1C`, for which the melting point is 162 °C and the ready biodegradability entry is reported as “not readily biodegradable”. `CN[C@@H](C)[C@@H](O)c1ccccc1`: the melting point was found to be 90.5 °C. Take `Cc1ccc2cccc(C)c2c1`: the boiling point came out at 263 °C and the melting point was -13.9 °C. Compound `C=C(Cl)C(C)Cl` (stereo not drawn) had a boiling point of 112 °C.

The compound `COC1=C(O)C(=O)C(C)=C(O)C1=O` displayed a melting point of 202 °C. Turning to `C#CC(C)(C)NC(=O)c1ccc(C)cc1`, the log10 Koc (L/kg) came out at 1.76. `OC(c1ccc(Cl)cc1)(c1cncnc1)c1ccccc1Cl` (stereo not drawn) returned a log10 Koc (L/kg) of 2.78 and a melting point of 118 °C. The compound `CSc1nnc(C(C)(C)C)c(=O)n1/N=C/C(C)C` displayed a log10 vapour pressure (mmHg) of -6.46 and a melting point of 159 °C. Turning to `OC1CCC(Cl)CC1` (stereo not drawn), the melting point was found to be 82.5 °C. On to `FC(F)Br`, for which the boiling point is -15.5 °C and the melting point was -145 °C. `Clc1ccoc1`: the boiling point was determined as 80 °C. On the same count and under the same terms, in the case of `CC(Cl)CC(Cl)Cl` (stereo not drawn) it was 152 °C. Compound `COC(=O)[C@H](Cc1ccccc1)NC(=O)[C@@H](N)CC(=O)O` displayed a melting point of 246 °C.

Turning to `Cc1ccccc1N=Cc1ccccc1`, the boiling point was determined as 314 °C. Take `Cc1ccc(O)c(C=O)c1`: the boiling point was determined as 218 °C and the melting point stood at 56 °C.

The values above are taken from the OPERA property sets (Mansouri et al. 2018).
